Like-named read-outs stand apart in the source and are kept apart here.
How the values were obtained:
Human plasma kallikrein = Human plasma kallikrein (Homo sapiens (Human), UniProt P03952); assay: Determination of the IC50 for Plasma Kallikrein; type: biochemical; conditions: read-out: IC50 (human PKal)
Experimental: Human plasma kallikrein (Protogen) was incubated at 37° C. with the fluorogenic substrate H-DPro-Phe-Arg-AFC and various concentrations of the test compound. Residual enzyme activity (initial rate of reaction) was determined by measuring the change in optical absorbance at 410 nm and the IC50 value for the test compound was determined.

Human KLK1 = Human KLK1 (Homo sapiens (Human), UniProt P06870); assay: Determination of the IC50 for KLK1; type: biochemical; conditions: 37° C., fluorogenic substrate H-DVal-Leu-Arg-AFC
Sequence of Human KLK1 (P06870 25-262): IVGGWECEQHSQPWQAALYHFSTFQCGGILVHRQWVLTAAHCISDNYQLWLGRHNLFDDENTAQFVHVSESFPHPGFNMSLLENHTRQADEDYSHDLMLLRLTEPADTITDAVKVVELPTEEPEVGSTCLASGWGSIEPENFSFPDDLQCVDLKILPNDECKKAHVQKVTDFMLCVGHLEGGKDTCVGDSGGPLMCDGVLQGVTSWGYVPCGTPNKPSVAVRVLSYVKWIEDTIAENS
Experimental: KLK1 inhibitory activity in vitro was determined using standard published methods (see e.g. Johansen et al., Int. J. Tiss. Reac. 1986, 8, 185; Shori et al., Biochem. Pharmacol., 1992, 43, 1209; Stürzebecher et al., Biol. Chem. Hoppe-Seyler, 1992, 373, 1025). Human KLK1 (Callbiochem) was incubated at 37° C. with the fluorogenic substrate H-DVal-Leu-Arg-AFC and various concentrations of the test compound. Residual enzyme activity (initial rate of reaction) was determined by measuring the change in optical absorbance at 410 nm and the IC50 value for the test compound was determined.

[1] = 37° C., fluorogenic substrate H-DPro-Phe-Arg-AFC

Sequence of Human plasma kallikrein (P03952 391-638): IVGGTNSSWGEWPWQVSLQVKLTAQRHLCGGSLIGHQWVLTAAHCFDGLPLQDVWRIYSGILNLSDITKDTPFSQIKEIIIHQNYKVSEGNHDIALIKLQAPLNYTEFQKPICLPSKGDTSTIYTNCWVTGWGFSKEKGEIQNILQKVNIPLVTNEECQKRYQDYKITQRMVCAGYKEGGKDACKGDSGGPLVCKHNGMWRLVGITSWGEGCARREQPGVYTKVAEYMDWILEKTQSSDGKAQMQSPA
Sequence of Human plasma kallikrein (P03952 20-390 partner): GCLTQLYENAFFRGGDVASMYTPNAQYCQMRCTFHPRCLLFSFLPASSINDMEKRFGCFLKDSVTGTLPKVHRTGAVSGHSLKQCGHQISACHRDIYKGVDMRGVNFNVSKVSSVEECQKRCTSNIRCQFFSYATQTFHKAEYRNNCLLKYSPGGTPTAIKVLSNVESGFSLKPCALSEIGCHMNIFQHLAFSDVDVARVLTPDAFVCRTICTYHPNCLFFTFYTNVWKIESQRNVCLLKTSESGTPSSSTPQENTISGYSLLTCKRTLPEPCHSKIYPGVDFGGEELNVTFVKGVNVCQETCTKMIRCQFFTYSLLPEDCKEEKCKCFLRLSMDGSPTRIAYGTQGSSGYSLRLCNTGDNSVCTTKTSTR

SMILES	IC50 (Human plasma kallikrein; [1]) [nM]	IC50 (Human KLK1) [nM]	IC50 (Human plasma kallikrein) [nM]
Cc1cc(C(=O)NCc2ccc(CN)cc2)c(C)n1Cc1cccs1 [Example 20, 2,5-Dimethyl-1-thiophen-2-ylmethyl-1H-pyrrole-3-carboxylic acid 4-amidomethyl-benzylamide]	4950	2400	
Cc1cc(C(=O)NCc2ccc(CN)cc2)c(C)n1Cc1ccc(C#N)cc1 [Example 65, 1-(4-Cyano-benzyl)-2,5-dimethyl-1H-pyrrole-3-carboxylic acid 4-aminomethyl-benzylamide]	4560	> 10000	
CCn1c(C(=O)NCc2c(C)cc(CN)cc2C)cc(C)c1Cc1ccc(Cn2cc(C)cn2)cc1 [Example 102, 1-Ethyl-4-methyl-5-[4-(4-methyl-pyrazol-1-ylmethyl)-benzyl]-1H-pyrrole-2-carboxylic acid 4-aminomethyl-2,6-dimethyl-benzylamide]	11	4270	
Cc1cnn(Cc2ccc(Cn3cc(C(=O)NCc4c(C)cc(CN)cc4C)c(C(F)(F)F)n3)cc2)c1 [Example 118, 1-[4-(4-Methyl-pyrazol-1-ylmethyl)-benzyl]-3-trifluoromethyl-1H-pyrazole-4-carboxylic acid 4-aminomethyl-2,6-dimethyl-benzylamide]	1	> 10000	
Cc1cc(C(=O)NCc2ccc(CN)cc2)c(C)n1Cc1csc(-c2cccnc2)n1 [Example 31, 2,5-Dimethyl-1-(2-pyridin-3-yl-thiazol-4-ylmethyl)-1H-pyrrole-3-carboxylic acid 4-aminomethyl-benzylamide]	251	8080	
Cc1cc(C(=O)NCc2ccc([C@@H](C)N)cc2)c(C)n1Cc1csc(-c2ccccc2)n1 [Example 48, 2,5-Dimethyl-1-(2-phenyl-thiazol-4-ylmethyl)-1H-pyrrole-3-carboxylic acid 4-((R)-1-amino-ethyl)-benzylamide]	624	> 10000	
Cc1cc(C(=O)NCc2ccc(CN)cc2)c(C)n1Cc1cccc(N2CCOCC2)c1 [Example 73, 2,5-Dimethyl-1-(3-morpholin-4-yl-benzyl)-1H-pyrrole-3-carboxylic acid 4-aminomethyl-benzylamide]	7580	> 10000	
Cc1cnn(Cc2ccc(Cn3cc(C(=O)NCc4c(C)cc(CN)cc4C)nn3)cc2)c1 [Example 113, 1-[4-(4-Methyl-pyrazol-1-ylmethyl)-benzyl]-1H-[1,2,3]triazole-4-carboxylic acid 4-aminomethyl-2,6-dimethyl-benzylamide]	2	> 10000	
Cc1cc(C(=O)NCc2ccc(CN)cc2)c(C)n1Cc1ccc(C(N)=O)cc1 [Example 63, 1-(4-Carbamoyl-benzyl)-2,5-dimethyl-1H-pyrrole-3-carboxylic acid 4-aminomethyl-benzylamide]	7340	> 10000	
Cc1cc(C(=O)NCc2ccc(CN)cc2Cl)c(C)n1Cc1csc(-c2ccccc2)n1 [Example 49, 2,5-Dimethyl-1-(2-phenyl-thiazol-4-ylmethyl)-1H-pyrrole-3-carboxylic acid 4-aminomethyl-2-chloro-benzylamide]	89	> 10000	
Cc1cc(C(=O)NCc2ccc(CN)cc2)c(C)n1Cc1cccc(C(N)=O)c1 [Example 62, 1-(3-Carbamoyl-benzyl)-2,5-dimethyl-1H-pyrrole-3-carboxylic acid 4-aminomethyl-benzylamide]	6030	> 10000	
Cc1cc(C(=O)NCc2ccc(CN)cc2)c(C)n1Cc1cccc(N2CCCCC2)c1 [Example 74, 2,5-Dimethyl-1-(3-piperidin-1-yl-benzyl)-1H-pyrrole-3-carboxylic acid 4-aminomethyl-benzylamide]	1580	> 10000	
CCn1c(C(=O)NCc2ccc(CN)cc2)cc(C)c1Cc1csc(-c2ccccc2)n1 [Example 123, 1-Ethyl-4-methyl-5-(2-phenyl-thiazol-4-ylmethyl)-1H-pyrrole-2-carboxylic acid 4-aminomethyl-benzylamide]	2150	> 10000	
Cc1cc(C(=O)NCc2ccc(CN)cc2)c(C)n1Cc1csc(-c2cccc(F)c2)n1 [Example 29, 1-[2-(3-Fluoro-phenyl)-thiazol-4-ylmethyl]-2,5-dimethyl-1H-pyrrole-3-carboxylic acid 4-aminomethyl-benzylamide]	140	> 10000	
Cc1cc(CN)cc(C)c1CNC(=O)c1cc(C)n(Cc2ccc(Cn3ccccc3=O)cc2)c1C [Example 94, 2,5-Dimethyl-1-[4-(2-oxo-2H-pyridin-1-ylmethyl)-benzyl]-1H-pyrrole-3-carboxylic acid 4-aminomethyl-2,6-dimethyl-benzylamide]	11	10900	
Cc1cc(C(=O)NCc2ccc(CN)cc2)c(C)n1Cc1csc(-c2cccc(Cl)c2)n1 [Example 27, 2,5-Dimethyl-1-[2-(3-chlorophenyl)-thiazol-4-ylmethyl]-1H-pyrrole-3-carboxylic acid 4-aminomethyl-benzylamide]	848	> 10000	
Cc1cc(C(=O)NCc2ccc(CN)cc2)c(C)n1Cc1cccc(-c2ccncc2)c1 [Example 72, 2,5-Dimethyl-1-(3-pyridin-4-yl-benzyl)-1H-pyrrole-3-carboxylic acid 4-aminomethyl-benzylamide]	3020	> 10000	
Cc1cc(CN)cc(C)c1CNC(=O)c1cn(Cc2ccnc(N3CCCC3)c2)nc1C(F)(F)F [Example 129, 1-(2-Pyrrolidin-1-yl-pyridin-4-ylmethyl)-3-trifluoromethyl-1H-pyrazole-4-carboxylic acid 4-aminomethyl-2,6-dimethyl-benzylamide]	24	> 10000	
Cc1cc(C(=O)NCc2ccc([C@H](C)N)cc2)c(C)n1Cc1csc(-c2ccccc2)n1 [Example 51, 2,5-Dimethyl-1-(2-phenyl-thiazol-4-ylmethyl)-1H-pyrrole-3-carboxylic acid-4-((S)-1-amino-ethyl)-benzylamide]	341	> 10000	
Cc1cnn(Cc2ccc(Cn3cc(C(=O)NCc4ccc(CN)cc4)nn3)cc2)c1 [Example 108, 1-[4-(4-Methyl-pyrazol-1-ylmethyl)-benzyl]-1H-[1,2,3]triazole-4-carboxylic acid 4-aminomethyl-benzylamide]	33	> 10000	
Cc1cnn(Cc2ccc(Cn3cnc(C(=O)NCc4ccc(C5(N)CC5)cc4)c3)cc2)c1 [Example 105, 1-[4-(4-Methyl-pyrazol-1-ylmethyl)-benzyl]-1H-imidazole-4-carboxylic acid 4-(1-amino-cyclopropyl)-benzylamide]	941	> 10000	
Cc1cc(C(=O)NCc2ccc(CN)cc2)c(C)n1Cc1csc(Cc2ccccc2)n1 [Example 38, 1-(2-Benzyl-thiazol-4-ylmethyl)-2,5-dimethyl-1H-pyrrole-3-carboxylic acid 4-aminomethyl-benzylamide]	2310	> 10000	
Cc1cc(C(=O)NCc2ccc(CN)cc2)c(C)n1Cc1csc(-c2ccccn2)n1 [Example 36, 2,5-Dimethyl-1-(2-pyridin-2-yl-thiazol-4-ylmethyl)-1H-pyrrole-3-carboxylic acid 4-aminomethyl-benzylamide]	203	> 10000	
Cc1cnn(Cc2ccc(Cn3cc(C(=O)NCc4ccc(CN)cc4)cn3)cc2)c1 [Example 85, 1-[4-(4-Methyl-pyrazol-1-ylmethyl)-benzyl]-1H-pyrazole-4-carboxylic acid 4-aminomethyl-benzylamide]		> 8510	11
Cc1cnn(Cc2ccc(Cn3cc(C(=O)NCc4ccc(CN)cc4C)nn3)cc2)c1 [Example 109, 1-[4-(4-Methyl-pyrazol-1-ylmethyl)-benzyl]-1H-[1,2,3]triazole-4-carboxylic acid 4-aminomethyl-2-methyl-benzylamide]	5	> 10000	
Cc1cc(C(=O)NCc2ccc(CN)cc2)c(C)n1Cc1csc(-c2ccncc2)n1 [Example 32, 2,5-Dimethyl-1-(2-pyridin-4-yl-thiazol-4-ylmethyl)-1H-pyrrole-3-carboxylic acid 4-aminomethyl-benzylamide]	732	> 10000	
COc1cc(CNC(=O)c2cc(C)n(Cc3csc(-c4ccccc4)n3)c2C)ccc1CN [Example 53, 2,5-Dimethyl-1-(2-phenyl-thiazol-4-ylmethyl)-1H-pyrrole-3-carboxylic acid 4-aminomethyl-3-methoxy-benzylamide]	677	> 10000	
Cc1nc(-c2ccc(Cn3c(C)cc(C(=O)NCc4ccc(CN)cc4)c3C)s2)cs1 [Example 23, 2,5-Dimethyl-1-[5-(2-methyl-thiazol-4-yl)-thiophen-2-ylmethyl]-1H-pyrrole-3-carboxylic acid 4-aminomethyl-benzylamide]	1600	> 10000	
Cc1cnn(Cc2ccc(Cn3c(C)cc(C(=O)NCc4ccc(CN)cc4C)c3C)cc2)c1 [Example 97, 2,5-Dimethyl-1-[4-(4-methyl-pyrazol-1-ylmethyl)-benzyl]-1H-pyrrole-3-carboxylic acid 4-aminomethyl-2-methyl-benzylamide]	28	> 10000	
Cc1cc(C(=O)NCc2ccc(CN)cc2)c(C)n1Cc1ccccc1 [Example 55, 1-Benzyl-2,5-dimethyl-1H-pyrrole-3-carboxylic acid 4-aminomethyl-benzylamide]	3270		
